The record followed here is publication PMC7580997 (Journal of medicinal chemistry, 2019).

The target of one data set is HA-BIR3 of XIAP (Homo sapiens, UniProt P98170). The experiment in a line: Western blot. Format: cell-based. The note with it: HEK293T, 10 μM, 6 h.
Data set [1] in a line: Solubility and chemical stability in aqueous buffer by 1H 1D NMR. It is filed as physicochemical. The conditions noted are these: aqueous buffer pH = 7.5, T = 25 °C.
For another data set, the system named is SK-MEL-28 cells. The experiment in a line: IncuCyte S3 Caspase-3/7 apoptosis assay, SK-MEL-28. The conditions noted are these: SK-MEL-28, co-treatment with TNFα, nanomolar concentration. Format: cell-based, human.
A further data set can be described thus: Plasma stability. It is filed as in vitro ADME. The conditions noted are these: mouse plasma 80% in PBS pH 7.4, 37 °C, 200 μM.
For the next data set, the system named is A549 cells. The experiment in a line: IncuCyte S3 Caspase-3/7 apoptosis assay, A549. Format: cell-based. The conditions noted are these: nanomolar concentration.
The target of another data set is BIR3 domain of cIAP1 (Homo sapiens, UniProt Q13490). The experiment in a line: LC-MS of protein-compound covalent adduct, cIAP1-BIR3.
BIR3 domain of cIAP1, sequence (Q13490 258-363 limits assumed): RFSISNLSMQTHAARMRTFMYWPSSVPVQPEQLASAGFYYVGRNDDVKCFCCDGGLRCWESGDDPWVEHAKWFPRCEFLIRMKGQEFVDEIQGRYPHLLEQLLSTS

HA-BIR3 of XIAP, sequence (P98170 253-347 limits assumed): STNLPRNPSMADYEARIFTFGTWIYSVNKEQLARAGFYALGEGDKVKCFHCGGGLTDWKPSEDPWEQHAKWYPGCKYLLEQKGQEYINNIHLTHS

With `CN[C@@H](C)C(=O)N[C@H]1CN(C(=O)CC(C)C)CC[C@H]2CC[C@@H](C(=O)NC(c3ccccc3)c3ccccc3)N2C1=O` [AT406], the “stabilization of HA-BIR3 in cell (western blot band intensity)” value on HA-BIR3 of XIAP was “stabilized the BIR3 domain”. The “solubility in aqueous buffer (soluble up to)” value in data set [1] is “similar”. In addition, the “induction of apoptosis by co-treatment with TNFα” value in the data set on SK-MEL-28 cells was “Time- and dose-dependent apoptosis was restored”; in the data set with A549 cells it was “Time- and dose-dependent apoptosis was restored”. In addition, the “plasma stability t1/2” value in the data set “Plasma stability” was “similar”.
For `CN[C@@H](C)C(=O)N[C@@H](Cc1ccc(OS(=O)(=O)F)cc1)C(=O)N1CCC[C@H]1C(=O)N[C@@H]1CCc2c(F)cccc21` [Compound 1, 4-((S)-3-((S)-2-(((R)-4-fluoro-2,3-dihydro-1-H-inden-1-yl)carbamoyl)pyrrolidin-1yl)-2-((S)-2-(methylamino)propanamido)-3-oxopropyl)phenyl sulfurofluoridate], the “mass increase of cIAP1-BIR3 (covalent adduct)” value at BIR3 domain of cIAP1 was “no increase in mass”.
For `CN[C@@H](C)C(=O)N[C@H](C(=O)N1CCC[C@H]1c1nc(C(=O)c2ccc(F)cc2)cs1)C1CCCCC1` [LCL161], the “stabilization of HA-BIR3 in cell (western blot band intensity)” value at HA-BIR3 of XIAP is on record as “stabilized the BIR3 domain”. The “solubility in aqueous buffer (soluble up to)” value in data set [1] is “similar”. For the same compound, the “induction of apoptosis by co-treatment with TNFα” value in the data set on SK-MEL-28 cells was “Time- and dose-dependent apoptosis was restored”; in the data set on A549 cells it was “Time- and dose-dependent apoptosis was restored”. In addition, the “plasma stability t1/2” value in “Plasma stability” was “similar”.
